Experimental data: patent publication US11912713B2, “7-membered aza-heterocyclic containing delta-opioid receptor modulating compounds, methods of using and making the same” (Trevena, Inc., priority 2017, dated 2024)

Legend:
[1] = tested on: adult male C57 mice; test: Tail suspension test (TST); type: in vivo, mouse
Protocol: The experiments were performed using adult male C57 mice (6-10 weeks of age, 20-30 g, Hilltop Lab, PA). The mice were housed in standard rodent cages with stainless steel mesh wire bar lids in groups of 4 with controlled temperature and light cycle (6:00 a.m.-6:00 p.m.). Animals were given free access to food (Harlan Teklad Global 18% protein (Madison, WI)) and water during a minimum 2-day habituation period to the laboratory. Animals that were used in the study were handled, housed, and sacrificed (using compressed CO2) in accord with the current NIH guidelines regarding the use and care of laboratory animals, and all applicable local, state, and federal regulations and guidelines. Animals are identified by cage number, and by markings applied to the proximal tip of the tail using a permanent marker. Group sizes (n=8, and therefore 30-50 animals per study) provide reliable estimates of treatment effects, and this species and strain of mouse has been recognized as appropriate for pharmacology studies.
To measure efficacy of the compounds the compounds were tested using a tail suspension test. The tail suspension test is a behavioral test used to evaluate the efficacy of antidepressant drugs in rodents. In the TST, mice (n=8/group) were suspended by the tail with tape approximately 30-50 cm above the lab bench. Mice are positioned such that the base of their tail is perpendicular to the lab bench. Each mouse is given 1 trial that last 6 minutes. The total duration of immobility is calculated as the percentage of time that the mouse is immobile. The duration of immobility is the main parameter measured. This is calculated from the cumulated time during which the animals is absent of initiated movements including passive swaying. When antidepressant drugs are administered, immobility is decreased by a variety of classes of antidepressant drugs. One or more of the compounds show antidepressant activity.

[2] = biological target: T1, delta-opioid receptor (hDOR) (Homo sapiens, UniProt P41143); test: β-Arrestin recruitment assay (PathHunter); type: cell-based
T1 sequence (P41143 whole entry): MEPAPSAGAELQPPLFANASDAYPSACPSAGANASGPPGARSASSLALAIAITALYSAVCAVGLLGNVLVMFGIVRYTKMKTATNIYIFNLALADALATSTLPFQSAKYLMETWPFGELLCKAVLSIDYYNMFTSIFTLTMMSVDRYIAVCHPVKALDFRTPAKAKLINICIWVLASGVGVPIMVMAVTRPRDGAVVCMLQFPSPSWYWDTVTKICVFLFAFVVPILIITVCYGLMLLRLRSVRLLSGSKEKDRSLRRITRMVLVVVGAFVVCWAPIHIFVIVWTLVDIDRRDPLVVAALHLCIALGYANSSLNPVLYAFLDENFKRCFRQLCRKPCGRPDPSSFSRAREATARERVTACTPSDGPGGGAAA
Protocol: (§1) Clonal stable lines were subsequently selected under G418.
(§2) Cell lines were grown adherently in Minimum Essential Media (Cellgro cat #10-010-CM) containing 10% fetal bovine serum (Hyclone cat #SH30071.03), 4 mM glutamine (Cellgro cat #25-005-CI), 150 ug/ml hygromycin B (Cellgro cat #30-240-CR), 150 ug/ml G418 (Cellgro cat #30-234-CR), and 50 u/50 ug penicillin/streptomycin (Lonza cat #17-603E). Prior to the assay cells were removed from the flasks with CellStripper (Cellgro cat #25-056-CI), repeatedly pipetted to disperse cells, and spun at low speed for 5 min at room temperature. Cells were then resuspended at 250,000 cells/ml in growth media and plated at 5,000 cells/well in 384 well plates (Greiner part #784080). Plates were incubated overnight at 37° C., 5% CO2 in a humidified incubator.
Receptor mediated beta-arrestin recruitment was determined using the DiscoveRx β-arrestin PathHunter Detection kit (cat #93-0001). In this system, β-Arrestin is fused to an N-terminal deletion mutant of β-galactosidase (termed the enzyme acceptor of EA) and the GPCR of interest is fused to a smaller (42 amino acids), weakly complementing fragment termed ProLink™. […] Following a 60 minute incubation at 37° C. the components of the DiscoveRx β-arrestin PathHunter Detection kit were added as directed and the plates were read after 1 hour on a BMG PheraStar plate reader.

[3] = tested on: mu- and kappa-opioid receptors; conditions: versus mu- and kappa-opioid receptors
Source text: Plasmids encoding delta-opioid receptor (Accession NP_000902), mu-opioid receptor (Accession NP_000905) and kappa-opioid receptor (Accession Assession NP_000903) were generated in the pCMV-Prolink backbone and transfected into an EA-arrestin parental human embryonic kidney (HEK-293) cell line from DiscoveRx Corporation. Clonal stable lines were subsequently selected under G418.
The values are normalized against DPDPE ([D-Pen2,5]Enkephalin, [D-Pen2,D-Pen5]Enkephalin), which is a known agonist of the receptor. Compound selectivity was also evaluated by testing compounds on the mu- and kappa-opioid receptors, the values from which were normalized against DAMGO ([D-Ala2, N-Me-Phe4, Gly5-ol]-Enkephalin acetate salt) and U69,593, respectively.

[4] = biological target: T1, delta-opioid receptor (hDOR); test: cAMP assay (receptor G-protein mediated response); type: cell-based; conditions: efficacy, normalized against DPDPE
Protocol: as §1, §2
Receptor G-protein mediated responses were determined by measuring changes in intracellular cAMP using CisBio HTRF cAMP HiRange kit (cat #62AM6PEJ) based on time-resolved fluorescence resonance energy transfer (TR-FRET). […] Following a 30 minute incubation at 37° C. the components of the cAMP HiRange kit were added as directed and the plates were read after 1 hour on a BMG PheraStar plate reader. Responses were measured as the ratio of fluorescence at 665 nm/620 nm per manufacturer's instructions.

## CCCN1CC[C@@H](COc2ccc3c(c2)C(=O)NC3)[C@H](c2ccc(OC)cc2)CC1 (racemic) [Compound C0004, (±)-6-{((trans)-5-(4-methoxyphenyl)-1-propylazepan-4-yl]methoxy}-2,3-dihydro-1H-isoindol-1-one]
[1]; route sc
  Active TST Dose: ≤30 mg/kg

## CCCN1C2CCC1CC(c1ccc(OC)cc1)=C(COc1ccc3c(c1)C(=O)NC3)C2 (racemic) [Compound C0066, 6-{[4-(4-methoxyphenyl)-9-propyl-9-azabicyclo[4.2.1]non-3-en-3-yl]methoxy}-2,3-dihydro-1H-isoindol-1-one]
[1]; route sc
  Active TST Dose: ≤10 mg/kg

## CCCN1C2CCC1CC(c1ccc(OC)cc1)C(CCc1ccc3c(c1)C(=O)NC3)C2 (stereo not drawn) [Compound C0084, 6-{2-((cis)-4-(4-methoxyphenyl)-9-propyl-9-azabicyclo[4.2.1]nonan-3-yl]ethyl}-2,3-dihydro-1H-(trans)-isoindol-1-one]
[1]; route sc
  Active TST Dose: ≤30 mg/kg

## COc1ccc(C2CCN(CCc3ccccc3)C(C)CC2COc2ccc3c(c2)C(=O)NC3)cc1 (stereo not drawn) [Compound C0457, 6-{[(trans)-5-(4-methoxyphenyl)-2-methyl-1-(2-phenylethyl)azepan-4-yl]methoxy}-2,3-dihydro-1H-isoindol-1-one]
[1]; route po
  Active TST Dose: ≤60 mg/kg

## Fc1ccc([C@@H]2CCNC[C@H]2COc2ccc3c(c2)OCO3)cc1 [Paroxetine]
[2]; efficacy, normalized against DPDPE
  hDOR B Span: <100
[2]; β-arrestin recruitment, HEK-293 cells, read-out: hDOR B pEC50 (converted)
  EC50: > 1 µM
[3]
  selectivity for the delta-opioid receptor: non-selectivity
[4]
  hDOR G Span: <100
